{
  "source": "paper PMC12391994",
  "about": "“Synthesis of a fac-Tricarbonylrhenium(I) Complex with Pyrithione, Its Physicochemical Characterization, and Assessment of Biological Effects” (ACS Omega, 2025)",
  "key": {"[1]": {"assay": "Stability/transformation in aqueous solution (1H NMR, UV-vis, CZE)", "assay_type": "physicochemical", "protocol": "A Bruker Avance III HD Ascend 500 Plus instrument (Billerica, MA) was used for solution NMR studies. Spectra were recorded with a WATERGATE water suppression pulse scheme in the presence of 10% (v/v) D2O in most cases. DSS internal standard was added to samples to obtain reference peaks."}, "Colo205 cells": {"test_system": "Colo205 cells", "assay": "MTT cytotoxicity assay, Colo205", "assay_type": "cell-based, human", "settings": "72 h incubation, MTT; read-out: IC50 Colo205", "protocol": "(§1) Its cytotoxicity was determined in the human HeLa cervical cancer cell line, the drug-sensitive Colo205 and its resistant counterpart, the ABCB1 expressing Colo320 colon adenocarcinoma cancer cell lines, using the colorimetric 3-(4,5-dimethylthiazol-2-yl)-2,5-diphenyltetrazolium bromide (MTT) test. To investigate the selectivity toward cancer cells, the noncancerous fibroblast CCD-19Lu cell line was included.\nDrug-sensitive Colo205 (ATCC-CCL-222) and ABCB1 (MDR1)-LRP expressing and doxorubicin-resistant Colo320/MDR-LRP (ATCC-CCL-220.1) human colonic adenocarcinoma cell lines were purchased from LGC Promochem (Teddington, U.K.). The cells were cultured in RPMI 1640 medium supplemented with 10% heat-inactivated fetal bovine serum, 2 mM L-glutamine, 1 mM Na-pyruvate, and 10 mM HEPES.\n(§2) The tested compound was dissolved in DMSO to prepare a 5 mM stock solution, which was diluted in complete culture medium, to study the effect of compounds on cell growth of human colonic adenocarcinoma cell lines. Doxorubicin was used as the positive control. The cells were treated with a trypsin-versene (EDTA) solution. Cells were adjusted to a density of 1 × 10^4 cells in 100 μL of the appropriate culture medium and were added to each well, with the exception of the medium control wells. Except for the semiadherent Colo205 and Colo320 cell lines, the other adherent cell lines were seeded 24 h prior to the assay. Then, stock solutions were diluted in the appropriate culture medium, and 2-fold serial dilutions of compounds were prepared in 100 μL of the medium, horizontally. The final volume of the wells containing compounds and cells was 200 μL. The plates were incubated at 37 °C for 72 h; at the end of the incubation period, 20 μL of MTT solution (from a stock solution of 5 mg/mL) was added to each well. […] Cell growth was determined by measuring the optical density (OD) at 540/630 nm with a Multiscan EX ELISA reader (Thermo Labsystems, Cheshire, WA). […]"}, "HeLa cells": {"test_system": "HeLa cells", "assay": "MTT cytotoxicity assay, HeLa", "assay_type": "cell-based, human", "settings": "72 h incubation", "protocol": "as §1\nas §2, with “horizontally.” for “horizontally. The final volume of the wells containing compounds and cells was 200 μL. The plates were incubated at 37 °C for 72 h; at the end of the incubation period, 20 μL of MTT solution (from a stock solution of 5 mg/mL) was added to each well.”"}, "[2]": {"target": "T1, cathepsin B (endopeptidase activity) (Homo sapiens, UniProt P07858)", "T1 construct": "made in house; host or cells: E. coli", "assay": "Relative inhibition of cathepsin B endopeptidase activity", "assay_type": "biochemical", "settings": "50 μM; substrate Z-Arg-Arg-AMC; pH 6.0", "source_text": "(§3) Relative inhibition is expressed as a percentage of the decrease in reaction velocity in the presence of an inhibitor, in comparison to the reaction velocity in the absence of an inhibitor. For that purpose, the specific fluorogenic substrates Z-Arg-Arg-7-amido-4-methylcoumarin (Z-Arg-Arg-AMC) and 2-aminobenzoyl (Abz)-Gly-Ile-Val-Arg-Ala-Lys-(Dnp)-OH were used for cathepsin B endopeptidase and exopeptidase activities, respectively, and Z-Phe-Arg-AMC was used for cathepsin L and V activities.\n(§4) Human recombinant cathepsin B was expressed in E. coli, recombinant cathepsin V was expressed in Pichia pastoris, and human recombinant cathepsin L was expressed in E. coli, as reported. − For the determination of cathepsin B endopeptidase and exopeptidase activities, 100 mM phosphate buffer (pH 6.0) and 60 mM acetate buffer (pH 5.0) were used, respectively, and for the determination of cathepsin V and L activities, 100 mM acetate buffer (pH 5.5) was used. All buffers contained 0.1% PEG 8000 (Sigma-Aldrich, St. Louis, MO), 5 mM cysteine, and 1.5 mM EDTA. Prior to the assay, the enzymes were activated in the assay buffer for 5 min at 37 °C.\n(§5) To determine the effect of inhibitors on enzyme activity, the following substrates were used: Z-Arg-Arg-AMC (final concentration 5 μM, Z-RR-AMC; Bachem, Bubendorf, Switzerland) for cathepsin B endopeptidase activity, Abz-Gly-Ile-Val-Arg-Ala-Lys-(Dnp)-OH (final concentration 1 μM, Abz-GIVRAK-(Dnp)-OH; Bachem) for cathepsin B exopeptidase activity, and Z-Phe-Arg-AMC (final concentration 2 μM, Z-FR-AMC; Bachem) for cathepsin V and L activity. The substrate ([…]) at a final concentration and inhibitor ([…]) at a concentration of 50 μM were added to the wells of a black microplate. The reaction was then initiated by adding 90 μL of activated enzyme (final concentrations: 5 nM cathepsin B for its endopeptidase activity, 0.5 nM cathepsin B for its exopeptidase activity, 2.5 ng/mL for cathepsin V, and 0.02 nM for cathepsin L) in the assay buffer. The formation of fluorescent degradation products during the reaction was continuously monitored at 460 ± 10 nm with excitation at 380 ± 20 nm for Z-Arg-Arg-AMC and Z-Phe-Arg-AMC and at 420 ± 10 nm with excitation at 320 ± 20 nm for Abz-Gly-Ile-Val-Arg-Ala-Lys(Dnp)-OH at 37 °C on a Tecan Infinite M1000 (Mannedorf, Switzerland) spectrofluorometer. All assay mixtures contained 5% (v/v) DMSO. To prevent false-positive inhibition due to the formation of compound aggregates, 0.01% Triton X-100 was used. All measurements were performed in triplicate and repeated twice. The relative inhibition was calculated using the following equation: relative inhibition (%) = 100(1 – v i/v o), where v i and v o designate the reaction velocities in the presence and absence of inhibitor, respectively."}, "[3]": {"target": "T2, cathepsin B (exopeptidase activity) (Homo sapiens, UniProt P07858)", "T2 construct": "made in house; host or cells: E. coli", "assay": "Relative inhibition of cathepsin B exopeptidase activity", "assay_type": "biochemical", "settings": "50 μM; substrate Abz-Gly-Ile-Val-Arg-Ala-Lys-(Dnp)-OH; pH 5.0", "source_text": "as §3, §4, §5"}, "[4]": {"settings": "pH 7.4, 25.0 °C", "procedure": "The concentration of the compound was determined by UV–vis spectrophotometry. For calibration, stock solutions of the compound were used with known concentrations dissolved in 100% DMSO, 75% DMSO, and 50% (v/v) DMSO/buffered aqueous solutions."}},
  "data": [
    {"molecule": "N#Cc1ccccc1.[C-]#[O+].[C-]#[O+].[C-]#[O+].[O-]n1ccccc1=S.[Re+]", "note": "[complex 4, fac-[Re(CO)3(pth)(benzonitrile)]]", "values": [
      {"measurement": "time for complete release of the benzonitrile ligand", "setting": "[1]; water pH 6.8 and pH 7.4 (phosphate or HEPES buffer), kept in the dark, 1H NMR", "value": "≤ 1", "unit": "h"},
      {"measurement": "dissociation of the pyrithione ligand", "setting": "[1]; water pH 6.8 and pH 7.4 buffers, dark, 48 h", "value": "did not occur within 48 h"},
      {"measurement": "IC50", "setting": "Colo205 cells", "value": "9.22 ± 0.53", "unit": "µM"},
      {"measurement": "IC50", "setting": "HeLa cells", "value": "7.96 ± 0.98", "unit": "µM"},
      {"measurement": "relative inhibition cathepsin B endopeptidase", "setting": "[2]", "value": "63.6 ± 0.8", "unit": "%"},
      {"measurement": "relative inhibition cathepsin B exopeptidase", "setting": "[3]", "value": "37.5 ± 2.1", "unit": "%"},
      {"measurement": "aqueous solubility S7.4", "setting": "[4]", "value": "350 ± 10", "unit": "µM"},
      {"measurement": "maximum nontoxic concentration", "setting": "Vero cells", "value": 6.25, "unit": "µM"}
    ]}
  ]
}
